How the values were obtained:
[1] = biological target: T1, CRBN and Helios (IKZF2) (Homo sapiens, UniProt Q96SW2+Q9UKS7); experiment: TR-FRET dimerization assay (CRBN-IKZF2 ternary complex formation); assay type: binding; details: n=1
T1 construct: His (N); Strep (N)
Protocol: A focused library of imide analogs was synthesized and assessed for their ability to induce dimerization between CRBN and Helios in a time-resolved fluorescence energy transfer (TR-FRET) assay (FIG. 1A).
Prior to TR-FRET measurements being conducted, the reactions were incubated for 15 min at rt. […] The TR-FRET signal of each data point was extracted by calculating the 520/490 nm ratios. Data from single measurements (n=1), each calculated as an average of at least three technical replicates per well per experiment are presented in Table 1.
BODIPY-labeled CRBN in complex with Damage Specific DNA Binding Protein 1 (DDB1) harboring an internal deletion of the flexible BPB propeller (DDB1AB-CRBN) and in vitro biotinylated IKZF2 were treated with increasing concentrations of the indicated compounds in the presence of tracer amounts of Terbium-Streptavidin (Tb-SA). Compound-induced recruitment of IKZF2 to CRBN was quantified following the 520/490 TR-FRET ratio using a PHERAstar® plate reader (BMG) utilizing two synchronized PMTs to reduce background.

[2] = system: IKZF2; experiment: Cellular degradation assay, eGFP-IKZF2Δ fusion with mCherry reporter in Flp-In 293 cells; assay type: cell-based; details: 5 h incubation, n=1
Protocol: (§1) IKZF1Δ, IKZF2Δ, GSPT1 and SALL4 ZnF1-2 were subcloned into mammalian pcDNA5/FRT Vector (Ampicillin and Hygromycin B resistant) modified to contain MCS-eGFP-P2A-mCherry. […] Following 2-3 passage cycle, FACS (FACSAria™ II, BD) was used to enrich for cells expressing eGFP and mCherry. Cells stably expressing the IKZF1Δ, IKZF2Δ, GSPT1 or SALL4 Znf1-2 GFP fusions with mCherry reporter were seeded at 30-50% confluency in 384-well plates with 50 μL FluoroBrite™ DMEM media (Thermo Fisher Scientific, A18967) containing 10% FBS per well a day before compound treatment. Compound titrations were dispensed using a D300e Digital Dispenser (HP), normalized to 0.5% DMSO, and incubated with cells for 5 hours.
(§2) The resulting images were analyzed using CellProfiler™. A series of image analysis steps (‘image analysis pipeline’) was constructed. First, the red and green channels were aligned and cropped to target the middle of each well (to avoid analysis of heavily clumped cells at the edges), and a background illumination function was calculated for both red and green channels of each well individually and subtracted to correct for illumination variations across the 384-well plate from various sources of error. An additional step was then applied to the green channel to suppress the analysis of large auto fluorescent artifacts and enhance the analysis of cell specific fluorescence by way of selecting for objects under a given size, 30 A.U., and with a given shape, speckles. mCherry-positive cells were then identified in the red channel filtering for objects between 8-60 pixels in diameter and using intensity to distinguish between clumped objects. The green channel was then segmented into GFP positive and negative areas and objects were labeled as GFP positive if at least 40% of it overlapped with a GFP positive area. The fraction of GFP-positive cells/mCherry-positive cells in each well was then calculated, and the green and red images were rescaled for visualization.
(§3) The degradation assay was performed as described above. […] Degradation was measured after 5 h of compound treatment and the concentrations that lead to half degradation at 5 h (DC50,5 h) were calculated using the nonlinear fit variable slope model (GraphPad Software).

[3] = biological target: T2, IKZF1 (Homo sapiens, UniProt Q13422); experiment: Cellular degradation assay, eGFP-IKZF1Δ fusion with mCherry reporter in Flp-In 293 cells; assay type: cell-based; details: 5 h incubation, n=1
T2 construct: expressed in transfected cells; host or cells: Flp-In 293
T2 sequence (Q13422 83-213 isoform Q13422-7 limits assumed): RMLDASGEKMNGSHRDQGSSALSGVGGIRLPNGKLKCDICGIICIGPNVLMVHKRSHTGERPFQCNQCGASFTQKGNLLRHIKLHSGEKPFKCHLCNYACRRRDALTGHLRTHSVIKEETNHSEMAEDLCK
T2 sequence (Q96SW2 whole entry partner, the tested form may be a part): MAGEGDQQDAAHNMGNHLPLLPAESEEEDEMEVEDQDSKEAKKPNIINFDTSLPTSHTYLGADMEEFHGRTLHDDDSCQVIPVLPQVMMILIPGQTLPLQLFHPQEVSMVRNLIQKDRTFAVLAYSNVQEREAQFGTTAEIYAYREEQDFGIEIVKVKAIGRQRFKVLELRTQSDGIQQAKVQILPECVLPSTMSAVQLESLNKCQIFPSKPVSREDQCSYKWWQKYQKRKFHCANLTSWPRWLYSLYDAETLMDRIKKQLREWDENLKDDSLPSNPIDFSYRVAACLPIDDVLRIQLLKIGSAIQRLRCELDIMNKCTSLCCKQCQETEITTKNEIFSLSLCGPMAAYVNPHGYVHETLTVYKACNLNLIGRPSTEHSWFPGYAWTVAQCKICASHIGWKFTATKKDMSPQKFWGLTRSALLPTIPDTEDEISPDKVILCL
T2 sequence (Q16531 2-1140 partner limits assumed): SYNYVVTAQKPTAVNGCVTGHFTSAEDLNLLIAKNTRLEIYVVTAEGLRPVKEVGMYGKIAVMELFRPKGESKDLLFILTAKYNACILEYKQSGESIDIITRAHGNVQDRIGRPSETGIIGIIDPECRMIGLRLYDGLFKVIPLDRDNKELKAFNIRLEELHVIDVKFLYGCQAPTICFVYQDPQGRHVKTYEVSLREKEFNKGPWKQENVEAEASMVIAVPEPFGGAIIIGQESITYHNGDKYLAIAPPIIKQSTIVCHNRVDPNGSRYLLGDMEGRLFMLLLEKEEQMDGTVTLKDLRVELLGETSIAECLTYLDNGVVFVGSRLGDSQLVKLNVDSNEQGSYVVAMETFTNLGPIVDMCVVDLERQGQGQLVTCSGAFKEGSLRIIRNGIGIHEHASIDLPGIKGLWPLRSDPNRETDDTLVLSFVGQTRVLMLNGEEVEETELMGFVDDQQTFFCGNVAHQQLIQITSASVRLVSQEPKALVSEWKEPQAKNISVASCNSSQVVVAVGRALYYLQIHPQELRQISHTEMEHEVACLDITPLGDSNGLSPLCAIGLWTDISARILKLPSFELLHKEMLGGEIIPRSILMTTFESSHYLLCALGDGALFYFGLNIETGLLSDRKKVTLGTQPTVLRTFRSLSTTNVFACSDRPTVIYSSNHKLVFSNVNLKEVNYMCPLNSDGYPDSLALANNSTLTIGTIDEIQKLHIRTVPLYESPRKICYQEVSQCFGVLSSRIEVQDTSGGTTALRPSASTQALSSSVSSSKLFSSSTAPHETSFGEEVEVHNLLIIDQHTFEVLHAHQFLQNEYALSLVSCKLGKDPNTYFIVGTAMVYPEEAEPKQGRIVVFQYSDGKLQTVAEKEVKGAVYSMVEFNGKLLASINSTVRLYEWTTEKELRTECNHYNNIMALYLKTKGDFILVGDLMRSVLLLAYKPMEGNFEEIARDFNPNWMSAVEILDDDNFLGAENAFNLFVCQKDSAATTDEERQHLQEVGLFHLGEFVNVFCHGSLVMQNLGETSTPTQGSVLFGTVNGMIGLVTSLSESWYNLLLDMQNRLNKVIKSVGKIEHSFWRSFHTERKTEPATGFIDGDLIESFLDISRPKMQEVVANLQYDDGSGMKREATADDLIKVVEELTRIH
Protocol: as §1, §2, §3

[4] = compound concentration 6.6667E−05
[5] = compound concentration 6.6667E−06
[6] = compound concentration 6.6667E−07 (667 nM)
[7] = compound concentration 2.00E−05
[8] = compound concentration 2.00E−06
[9] = compound concentration 2.00E−07

T1 sequence (Q96SW2 whole entry): as the sequence (Q96SW2 whole entry partner, the tested form may be a part) above
T1 sequence (Q9UKS7 whole entry): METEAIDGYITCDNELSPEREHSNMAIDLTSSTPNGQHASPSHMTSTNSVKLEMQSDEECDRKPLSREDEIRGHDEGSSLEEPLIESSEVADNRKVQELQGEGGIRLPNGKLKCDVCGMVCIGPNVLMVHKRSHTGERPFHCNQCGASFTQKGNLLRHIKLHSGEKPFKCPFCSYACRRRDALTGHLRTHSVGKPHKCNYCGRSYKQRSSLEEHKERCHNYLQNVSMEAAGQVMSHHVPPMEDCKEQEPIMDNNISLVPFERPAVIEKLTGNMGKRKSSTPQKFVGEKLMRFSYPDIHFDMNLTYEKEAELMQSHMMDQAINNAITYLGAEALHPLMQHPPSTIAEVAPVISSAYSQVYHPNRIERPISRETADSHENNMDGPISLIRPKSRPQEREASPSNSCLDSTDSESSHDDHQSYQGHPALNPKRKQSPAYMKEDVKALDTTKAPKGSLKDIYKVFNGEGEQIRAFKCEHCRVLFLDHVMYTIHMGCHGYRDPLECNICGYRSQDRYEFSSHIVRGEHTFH

Structure (SMILES)	TR-FRET-IKZF2 (Normalized to CC-885) [1, 4]	TR-FRET-IKZF2 (Normalized to CC-885) [1, 5]	TR-FRET-IKZF2 (Normalized to CC-885) [1, 6]	IKZF2 GFP/RFP Relative Abundance [2, 7]	IKZF2 GFP/RFP Relative Abundance [2, 8]	IKZF2 GFP/RFP Relative Abundance [2, 9]	IKZF1 GFP/RFP Relative Abundance [3, 7]	IKZF1 GFP/RFP Relative Abundance [3, 8]	IKZF1 GFP/RFP Relative Abundance [3, 9]
Cc1ccc(N(C)C(=O)CCc2cccc(NC3=CC(=O)N(C4CCC(=O)NC4=O)C3=O)c2)cc1Cl (stereo not drawn) [Compound 127, N-(3-chloro-4-methylphenyl)-3-(3-((1-(2,6-dioxopiperidin-3-yl)-2,5-dioxo-2,5-dihydro-1H-pyrrol-3-yl)amino)phenyl)-N-methylpropanamide]	1.390	1.362	1.195	0.266	0.047	0.060	0.313	0.079	0.079
Cc1ccc(NC(=O)N[C@H](C)c2cccc(NC3=CC(=O)N(C4CCC(=O)NC4=O)C3=O)c2)cc1Cl (stereo partly drawn) [Compound 70, 1-(3-chloro-4-methylphenyl)-3-((1R)-1-(3-((1-(2,6-dioxopiperidin-3-yl)-2,5-dioxo-2,5-dihydro-1H-pyrrol-3-yl)amino)phenyl)ethyl)urea]	1.531	1.409	1.271	0.021	0.057	0.031	0.076	0.080	0.103
Cc1cc(CNC(=O)NC(C)c2cccc(NC3=CC(=O)N(C4CCC(=O)NC4=O)C3=O)c2)ccc1Cl (stereo not drawn) [Compound 120, 1-(4-chloro-3-methylbenzyl)-3-(1-(3-((1-(2,6-dioxopiperidin-3-yl)-2,5-dioxo-2,5-dihydro-1H-pyrrol-3-yl)amino)phenyl)ethyl)urea]	1.263	1.011	0.860	0.077	0.117	0.157	0.094	0.110	0.092
Cc1cc(CNC(=O)NCc2cccc(NC3=CC(=O)N(C4CCC(=O)NC4=O)C3=O)c2)ccc1Cl (stereo not drawn) [Compound 82, 1-(4-chloro-3-methylbenzyl)-3-(3-((1-(2,6-dioxopiperidin-3-yl)-2,5-dioxo-2,5-dihydro-1H-pyrrol-3-yl)amino)benzyl)urea]	0.999	0.975	0.838	0.158	0.220	0.293	0.085	0.085	0.069
Cc1ccc(CNC(=O)CCc2cccc(NC3=CC(=O)N(C4CCC(=O)NC4=O)C3=O)c2)cc1Cl (stereo not drawn) [Compound 121, N-(3-chloro-4-methylbenzyl)-3-(3-((1-(2,6-dioxopiperidin-3-yl)-2,5-dioxo-2,5-dihydro-1H-pyrrol-3-yl)amino)phenyl)propanamide]	1.521	1.376	1.357	0.071	0.087	0.051	0.125	0.093	0.120
Cc1ccc(NC(=O)NC(CC(=O)N(C)C)c2cccc(NC3=CC(=O)N(C4CCC(=O)NC4=O)C3=O)c2)cc1Cl (stereo not drawn) [Compound 76, 3-(3-(3-chloro-4-methylphenyl)ureido)-3-(3-((1-(2,6-dioxopiperidin-3-yl)-2,5-dioxo-2,5-dihydro-1H-pyrrol-3-yl)amino)phenyl)-N,N-dimethylpropanamide]	1.961	1.657	1.577	0.027	0.036	0.032	0.103	0.069	0.107
Cc1ccc(NC(=O)NCc2cc(NC(=O)N(C)C)cc(NC3=CC(=O)N(C4CCC(=O)NC4=O)C3=O)c2)cc1Cl (stereo not drawn) [Compound 112, 3-(3-((3-(3-chloro-4-methylphenyl)ureido)methyl)-5-((1-(2,6-dioxopiperidin-3-yl)-2,5-dioxo-2,5-dihydro-1H-pyrrol-3-yl)amino)phenyl)-1,1-dimethylurea]	0.048	0.035	0.035	1.081	1.047	1.034	0.726	0.949	1.002
Cc1ccc(NC(=O)NCCc2cccc(NC3=CC(=O)N(C4CCC(=O)NC4=O)C3=O)c2)cc1C(F)(F)F (stereo not drawn) [Compound 126, 1-(3-((1-(2,6-dioxopiperidin-3-yl)-2,5-dioxo-2,5-dihydro-1H-pyrrol-3-yl)amino)phenethyl)-3-(4-methyl-3-(trifluoromethyl)phenyl)urea]	1.762	1.603	1.420	0.059	0.033	0.047	0.177	0.072	0.100
Cc1ccc(NC(=O)NCc2cc(NC3=CC(=O)N(C4CCC(=O)NC4=O)C3=O)ccc2OC(=O)N(C)C)cc1Cl (stereo not drawn) [Compound 95, 2-((3-(3-chloro-4-methylphenyl)ureido)methyl)-4-((1-(2,6-dioxopiperidin-3-yl)-2,5-dioxo-2,5-dihydro-1H-pyrrol-3-yl)amino)phenyl Dimethylcarbamate]	0.124	0.109	0.094	1.070	1.058	1.029	0.944	0.904	0.960

— patent US12227488B2, “Small molecule degraders of Helios and methods of use” (DANA-FARBER CANCER INSTITUTE, INC., priority 2018, dated 2025)
